From EP0285356A2, “Dopamine-beta-hydroxylase inhibitors” (SMITHKLINE BECKMAN CORPORATION, priority 1987, dated 1988)
Like-named read-outs stand apart in the source and are kept apart here.

Columns and labels:
[1] = molecular target: T1, dopamine-β-hydroxylase (DBH) (Homo sapiens, UniProt P09172); experiment: in vitro DBH inhibition, conversion of tyramine to octopamine in the presence of DBH; format: biochemical
T1 sequence (P09172 1-617): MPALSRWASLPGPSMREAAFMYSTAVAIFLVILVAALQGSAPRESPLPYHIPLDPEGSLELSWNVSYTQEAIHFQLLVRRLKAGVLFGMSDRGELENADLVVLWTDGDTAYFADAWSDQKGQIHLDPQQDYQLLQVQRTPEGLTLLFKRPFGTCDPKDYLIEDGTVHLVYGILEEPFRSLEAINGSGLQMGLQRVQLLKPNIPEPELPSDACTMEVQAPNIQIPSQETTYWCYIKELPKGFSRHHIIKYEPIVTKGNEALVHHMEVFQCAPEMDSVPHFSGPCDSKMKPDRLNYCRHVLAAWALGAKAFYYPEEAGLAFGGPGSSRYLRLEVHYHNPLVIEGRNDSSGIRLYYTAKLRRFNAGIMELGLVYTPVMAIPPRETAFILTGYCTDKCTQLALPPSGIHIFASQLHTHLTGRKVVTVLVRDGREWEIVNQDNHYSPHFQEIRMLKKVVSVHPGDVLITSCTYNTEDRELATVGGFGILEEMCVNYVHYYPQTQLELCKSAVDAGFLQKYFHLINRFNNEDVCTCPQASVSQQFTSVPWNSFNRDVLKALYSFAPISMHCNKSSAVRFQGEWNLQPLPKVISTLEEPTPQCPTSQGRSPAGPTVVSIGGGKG
Method: Listed in Table I are the compounds of the invention that were tested for in vitro DBH inhibition by a standard procedure for assaying conversion of tyramine to octopamine in the presence of DBH. J. J. Pisano, et al., Biochem. Biophys, Acta, 43, 566-568 (1960). Octopamine was assayed following sodium periodate oxidation to p-hydroxybenzaldehyde by measuring spectrophotometric absorbance at 330 nm. In Table I, inhibition is given in micromolar concentration of compound at which DBH activity was halved (IC₅₀).

[2] = test system: spontaneously hypertensive rats; experiment: mean arterial blood pressure in spontaneously hypertensive rats; format: in vivo; conditions: 50 mg/kg intraperitoneally, compared to vehicle-treated controls, approximate
Method: Further, spontaneously hypertensive rats were treated with a suspension or solution of 1-(2-furanylmethyl)imidazole-2-thiol at a dose of 50 mg/kg intraperitoneally, and mean arterial blood pressure was monitored for 260 minutes using indwelling cannulae in the tail arteries. […] Maximal blood pressure reduction was approximately 50 to 55 mm Hg.

[3] = concentration of compound at which DBH activity was halved, tyramine to octopamine, absorbance at 330 nm, read-out: DBH IC50

IC50 [1, 3] [µM]	Compound	time after treatment to significant blood pressure reductions [2] [min]	IC50 [1] [µM]
56	Sc1nccn1Cc1ccco1 [1-(2-furanylmethyl)imidazole-2-thiol]	≤ 30	–
36	Sc1nccn1Cc1ccoc1 [1-(3-furanylmethyl)imidazole-2-thiol]	–	–
–	CCCCc1ccc(C(=O)O)nc1 [fusaric acid, reference compound]	–	0.8
